For series [1], the target named is T1, D(2) dopamine receptor (Homo sapiens, UniProt P14416). The series can be described thus: Antagonist activity at dopamine D2 receptor (unknown origin) transfected in CHO cell membranes assessed as inhibition of forskolin-stimulated cAMP level after 10 mins by flash plate assay in presence of dopamine. The class given is functional, cell-based.
In series [2] the target is T2, D(1A) dopamine receptor (Homo sapiens, UniProt P21728). Description: Agonist activity at dopamine D1 receptor (unknown origin) transfected in CHO cell membranes assessed as increase in cAMP level after 8 mins by flash plate assay in presence of dopamine. It counts as functional, cell-based. On the technique in general: cAMP levels reflect the balance of adenylyl cyclase and phosphodiesterase activity.

Series [3] concerns the target T2, D(1A) dopamine receptor. Description: Displacement of [3H]SCH23390 from dopamine D1 receptor (unknown origin) expressed in CHO cell membranes after 60 mins. A general note: Loss of bound radioactivity is the signal in a displacement assay; it reports binding, not function.
Series [4] addresses T1, D(2) dopamine receptor. The series can be described thus: Displacement of [3H]N-methylspiperone from dopamine D2 receptor (unknown origin) expressed in CHO cell membranes after 60 mins.
Series [5] deals with Cytochrome P450 3A4 (Homo sapiens, UniProt P08684). Description: Inhibition of CYP3A4 (unknown origin). It counts as ADME.
Series [6] deals with Mus musculus. The series can be described thus: In vivo receptor occupancy of dopamine D2 receptor in CD1 mouse striatum assessed as inhibition of [3H]N-methylspiperone binding at 10 mg/kg, sc after 15 mins by scintillation counting analysis. The class given is functional. The settings on record: route subcutaneous.
In series [7] the target is Cytochrome P450 2D6 (Homo sapiens, UniProt P10635). Description: Inhibition of CYP2D6 (unknown origin). It counts as ADME.
Series [8] has as its system Mus musculus. The series can be described thus: In vivo receptor occupancy of dopamine D1 receptor in CD1 mouse striatum assessed as inhibition of [3H]SCH23390 binding at 10 mg/kg, sc after 15 mins by scintillation counting analysis. It counts as functional. The settings on record: route subcutaneous.
For series [9], the target named is T3, Cytochrome P450 1A2 (Homo sapiens, UniProt P05177).
T3 sequence (P05177 whole entry): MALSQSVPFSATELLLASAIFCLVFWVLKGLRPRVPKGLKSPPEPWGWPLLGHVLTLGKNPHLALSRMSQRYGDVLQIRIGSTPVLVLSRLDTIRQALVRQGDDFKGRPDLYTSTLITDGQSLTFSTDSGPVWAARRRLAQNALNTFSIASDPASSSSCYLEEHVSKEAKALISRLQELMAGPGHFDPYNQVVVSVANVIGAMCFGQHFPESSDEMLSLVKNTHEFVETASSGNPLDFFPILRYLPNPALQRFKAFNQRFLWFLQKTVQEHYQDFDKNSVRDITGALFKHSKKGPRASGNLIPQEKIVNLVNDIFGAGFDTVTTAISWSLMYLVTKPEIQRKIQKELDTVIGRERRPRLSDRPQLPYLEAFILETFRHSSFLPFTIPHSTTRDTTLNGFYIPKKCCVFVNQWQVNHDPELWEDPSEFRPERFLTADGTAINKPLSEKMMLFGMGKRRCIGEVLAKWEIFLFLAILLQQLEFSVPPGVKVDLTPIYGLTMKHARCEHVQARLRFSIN
The series can be described thus: Inhibition of CYP1A2 (unknown origin). It counts as ADME.

Series [10] has as its target Cytochrome P450 2C9 (Homo sapiens, UniProt P11712). Description: Inhibition of CYP2C9 (unknown origin). It counts as ADME.
Series [11] has as its target Cytochrome P450 2C19 (Homo sapiens, UniProt P33261). Description: Inhibition of CYP2C19 (unknown origin). It counts as ADME.

T2 sequence (P21728 whole entry): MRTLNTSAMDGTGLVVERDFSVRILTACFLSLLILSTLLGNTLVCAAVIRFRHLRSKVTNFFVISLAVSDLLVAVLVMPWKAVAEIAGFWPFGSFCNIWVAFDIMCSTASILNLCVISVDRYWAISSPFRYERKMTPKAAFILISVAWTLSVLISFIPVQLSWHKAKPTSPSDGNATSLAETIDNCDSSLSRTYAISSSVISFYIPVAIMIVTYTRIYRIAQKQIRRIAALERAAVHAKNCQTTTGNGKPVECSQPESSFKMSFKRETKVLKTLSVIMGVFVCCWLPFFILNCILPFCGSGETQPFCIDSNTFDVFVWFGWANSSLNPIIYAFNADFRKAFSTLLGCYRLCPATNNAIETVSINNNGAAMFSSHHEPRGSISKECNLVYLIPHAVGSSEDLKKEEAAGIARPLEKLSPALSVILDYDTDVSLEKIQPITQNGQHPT
T1 sequence (P14416 whole entry): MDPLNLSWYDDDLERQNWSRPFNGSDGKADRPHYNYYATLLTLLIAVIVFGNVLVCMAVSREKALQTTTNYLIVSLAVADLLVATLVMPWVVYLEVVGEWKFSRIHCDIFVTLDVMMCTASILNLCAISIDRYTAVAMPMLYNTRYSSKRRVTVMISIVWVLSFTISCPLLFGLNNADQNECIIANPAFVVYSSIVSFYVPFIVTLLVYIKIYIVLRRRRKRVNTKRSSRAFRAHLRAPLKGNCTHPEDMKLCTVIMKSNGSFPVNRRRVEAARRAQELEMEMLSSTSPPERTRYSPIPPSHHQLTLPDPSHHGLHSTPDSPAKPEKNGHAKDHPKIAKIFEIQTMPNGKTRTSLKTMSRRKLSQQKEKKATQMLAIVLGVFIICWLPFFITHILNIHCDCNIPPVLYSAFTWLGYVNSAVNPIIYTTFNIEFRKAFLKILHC
Chain of Cytochrome P450 2D6 (P10635 whole entry): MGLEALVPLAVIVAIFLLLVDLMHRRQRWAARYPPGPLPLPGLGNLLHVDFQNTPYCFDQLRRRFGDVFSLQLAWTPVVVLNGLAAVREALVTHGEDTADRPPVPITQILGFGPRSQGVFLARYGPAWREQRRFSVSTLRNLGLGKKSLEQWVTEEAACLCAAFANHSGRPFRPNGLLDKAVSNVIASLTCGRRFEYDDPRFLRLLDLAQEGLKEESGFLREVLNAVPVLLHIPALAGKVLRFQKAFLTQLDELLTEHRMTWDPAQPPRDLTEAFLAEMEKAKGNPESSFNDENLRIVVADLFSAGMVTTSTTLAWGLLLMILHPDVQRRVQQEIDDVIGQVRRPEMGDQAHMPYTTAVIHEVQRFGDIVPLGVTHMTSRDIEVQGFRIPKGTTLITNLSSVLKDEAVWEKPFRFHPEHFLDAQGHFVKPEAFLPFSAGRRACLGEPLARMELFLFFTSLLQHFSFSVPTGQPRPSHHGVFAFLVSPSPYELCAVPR
Chain of Cytochrome P450 2C19 (P33261 whole entry): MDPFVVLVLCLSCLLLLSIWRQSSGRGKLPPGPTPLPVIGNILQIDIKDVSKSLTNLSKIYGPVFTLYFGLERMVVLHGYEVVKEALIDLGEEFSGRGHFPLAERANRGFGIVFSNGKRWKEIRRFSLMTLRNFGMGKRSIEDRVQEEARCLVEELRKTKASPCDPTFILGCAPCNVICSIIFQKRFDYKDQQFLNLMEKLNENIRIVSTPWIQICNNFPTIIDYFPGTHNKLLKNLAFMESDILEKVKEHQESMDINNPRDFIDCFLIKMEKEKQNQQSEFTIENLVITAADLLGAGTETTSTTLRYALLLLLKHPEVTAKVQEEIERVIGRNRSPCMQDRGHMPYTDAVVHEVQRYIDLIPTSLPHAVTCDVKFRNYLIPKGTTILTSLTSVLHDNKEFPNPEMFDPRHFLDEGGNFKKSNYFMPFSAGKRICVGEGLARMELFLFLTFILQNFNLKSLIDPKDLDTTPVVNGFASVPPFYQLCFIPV
Chain of Cytochrome P450 3A4 (P08684 whole entry): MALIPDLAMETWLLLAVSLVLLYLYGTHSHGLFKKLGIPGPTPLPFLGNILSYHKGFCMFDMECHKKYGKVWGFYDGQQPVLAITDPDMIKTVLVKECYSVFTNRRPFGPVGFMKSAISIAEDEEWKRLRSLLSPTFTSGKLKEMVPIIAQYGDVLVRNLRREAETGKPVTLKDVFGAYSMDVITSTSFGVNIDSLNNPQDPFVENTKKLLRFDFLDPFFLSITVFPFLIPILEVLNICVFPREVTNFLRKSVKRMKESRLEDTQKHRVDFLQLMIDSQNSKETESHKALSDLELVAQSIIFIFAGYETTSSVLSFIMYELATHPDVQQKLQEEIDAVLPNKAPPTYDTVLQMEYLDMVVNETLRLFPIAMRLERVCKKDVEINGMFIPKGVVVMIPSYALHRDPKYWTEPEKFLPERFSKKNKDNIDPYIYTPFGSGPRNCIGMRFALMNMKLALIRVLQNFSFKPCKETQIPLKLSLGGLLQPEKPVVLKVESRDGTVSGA
Chain of Cytochrome P450 2C9 (P11712 whole entry): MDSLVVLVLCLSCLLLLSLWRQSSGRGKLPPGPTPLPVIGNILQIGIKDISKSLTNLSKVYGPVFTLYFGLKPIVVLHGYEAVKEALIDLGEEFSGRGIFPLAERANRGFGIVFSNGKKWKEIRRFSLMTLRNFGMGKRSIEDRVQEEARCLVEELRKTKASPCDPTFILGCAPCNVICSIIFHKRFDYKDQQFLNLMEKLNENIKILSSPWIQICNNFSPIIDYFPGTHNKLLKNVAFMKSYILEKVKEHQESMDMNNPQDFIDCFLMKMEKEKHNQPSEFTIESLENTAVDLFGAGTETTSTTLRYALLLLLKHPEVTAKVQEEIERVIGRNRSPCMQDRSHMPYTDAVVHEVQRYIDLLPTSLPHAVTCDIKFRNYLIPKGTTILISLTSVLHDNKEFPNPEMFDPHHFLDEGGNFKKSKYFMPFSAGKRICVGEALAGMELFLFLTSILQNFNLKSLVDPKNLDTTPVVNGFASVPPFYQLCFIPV

For orientation: IC50 means the concentration at which inhibition is half-maximal. One may read the EC50 as the midpoint of the concentration-response curve. As a reminder, the Ki is a measure of affinity in units of concentration, obtained from inhibition or displacement. Read a high Ki as lower affinity. Take `Cc1cc2c(cc1O)[C@H]1C[C@](O)(c3ccc(Cl)cc3)CCN1CC2`: in [1], the IC50 amounted to 150 nM. Also, the EC50 in series [2] (read-out: EC50) turned out to be 750 nM. The Ki in series [3] was found to be 45.9 nM; in series [4] it was 132 nM.

For `COc1cc2c(cc1O)[C@H]1C[C@@](O)(c3ccc(OC(F)(F)F)cc3)CCN1CC2`, the IC50 worked out at 6 nM in [1] and 840 nM in [7]. Further, the EC50 in series [2] (read-out: EC50) is 5 nM. Besides, the “inhibition (INH)” value in series [5], in series [9], in series [10] and in series [11] was “Not Active” in each case. The Ki in [3] was found to be 2 nM; in series [4] it was 4 nM. The Occ in series [6] turned out to be 75%; in series [8] it was 95%.

For `Cc1cc2c(cc1O)[C@H]1C[C@@](O)(c3ccc(Cl)cc3)CCN1CC2`, the IC50 in series [1] was 220 nM. Further, the EC50 in [2] (read-out: EC50) amounted to 11 nM. The Ki amounted to 5.5 nM in series [3] and 12.3 nM in series [4].

With `COc1ccc2c(c1)CCN1CC[C@](O)(c3ccc(Cl)cc3)C[C@H]21`, the IC50 in series [1] was 1010 nM. Also, the EC50 entry in series [2] (cho) is reported as “Not Active”. The results for the Ki in series [3] and in series [4] were 252 nM and 195 nM, respectively.

In the case of `COc1ccc2c(c1)CCN1CC[C@@](O)(c3ccc(Cl)cc3)C[C@H]21`, in series [2] (cho), the EC50 result is listed as “Not Active”. Also, the Ki in series [3] was 3340 nM; in series [4], above 10000 nM.

Regarding `COc1cc2c(cc1O)[C@H]1C[C@@](O)(c3ccc(Cl)cc3)CCN1CC2`, in series [2] (read-out: EC50), the EC50 worked out at 8 nM. In addition, the Ki was determined as 4 nM in [3] and 14.8 nM in series [4].

On to `COc1cc2c(cc1O)[C@H]1C[C@](O)(c3ccc(Cl)cc3)CCN1CC2`, for which the IC50 in series [1] amounted to 380 nM. Besides, the EC50 result in series [2] (cho) was “Not Active”. Moreover, the Ki was determined as 244 nM in [3] and 101 nM in series [4].

For the origin of these results see ChEMBL document CHEMBL2331372, “Design and synthesis of D₁ agonist/D₂ antagonist for treatment of schizophrenia” (Bioorg Med Chem Lett, 2013).
